Measurements taken from patent publication US5013850A, “4-ethyl and 4-ethenyl-5-hydroxy-2(5H)-furanones substituted on alpha carbon of the ethyl or ethenyl side chain with a long chain alkyl group and on the beta carbon with a polar group, as anti-inflammatory agents” (Allergan, Inc., priority 1990, dated 1991).

Test system: phosphoinositide-specific phospholipase C
Assay: not given
Conditions: Bennett et al, Molecular Pharmacology 32:587-593 (1987); cited from earlier work
In the case of `CC(=CCCC1=CCC(C2=CC(=O)OC2O)OC1O)CCC1=C(C)CCCC1(C)C` (centres unmarked) [Compound 1], the “inhibition of phosphoinositide-specific phospholipase C” value is listed as “This activity has been reported for manoalide”.

Target: bee venom phospholipase A2 (Apis mellifera, UniProt P00630)
Sequence (P00630 34-167 limits assumed): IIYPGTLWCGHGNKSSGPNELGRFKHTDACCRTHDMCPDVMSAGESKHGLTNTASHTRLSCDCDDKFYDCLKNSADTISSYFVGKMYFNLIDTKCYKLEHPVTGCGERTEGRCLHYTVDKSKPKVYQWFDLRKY
Assay: biochemical
Conditions: read-out: IC50, Phospholipase A2 Assay (50% inhibition of bee venom phospholipase A2)
`CC(=CCCC1=CCC(C2=CC(=O)OC2O)OC1O)CCC1=C(C)CCCC1(C)C` (centres unmarked) [Compound 1] showed an IC50 of 30 nM. Work on `CCCCCCCCCCCCC(CC(=O)OCC)C1=CC(=O)OC1O` (centres unmarked) [Compound 7, 4-[1-(Ethoxycarbonylmethyl)tridecyl]-5-hydroxy-2(5H)-furanone] yielded an IC50 of 260 nM. `CCCCCCCCCCCCC(CC(C)=O)C1=CC(=O)OC1O` (centres unmarked) [Compound 8, 4-[1-(2-oxopropyl)tridecyl]-5-hydroxy-2(5H)-furanone] gave an IC50 of 90 nM. Work on `CCCCCCCCCCCCC(CC(=O)C(F)(F)F)C1=CC(=O)OC1O` (centres unmarked) [Compound 9, 4-[1-(3,3,3-Trifluoro-2-oxo)propyl]tridecyl-5-hydroxy-2(5H)-furanone] yielded an IC50 of 420 nM. `CCCCCCCCCCCCC(CC(C)(C)O)C1=CC(=O)OC1O` (centres unmarked) [Compound 10, 4-[1-(2-Hydroxy-2-methylpropyl)tridecyl]-5-hydroxy-2(5H)-furanone] showed an IC50 greater than 1000 nM. For `CCCCCCCCCCCCC(C1=CC(=O)OC1O)C(C(=O)OC)C(=O)OC` (centres unmarked) [Compound 11, 4-[-(1,1-Bis(carbomethoxy)methyl)tridecyl]-5-hydroxy-2(5H)-furanone], the IC50 was 80 nM. Compound `CCCCCCCCCCCCC(CC(=O)O)C1=CC(=O)OC1O` (centres unmarked) [Compound 12, 4-[1-(Carboxymethyl)tridecyl]-5-hydroxy-2(5H)-furanone] has an IC50 of 130 nM. With `CCCCCCCCCCCCC(CP(=O)(OCC)OCC)C1=CC(=O)OC1O` (centres unmarked) [Compound 13, 4-[1-(diethylphosphonyl)methyl]tridecyl-5-hydroxy-2(5H)-furanone] the IC50 was 100 nM. Work on `CCCCCCCCCCCCC(=CC(=O)C(F)(F)F)C1=CC(=O)OC1O` (centres unmarked) [Compound 23, (E),(Z)-4-[(1-Dodecyl-3-oxo-4,4,4-trifluoro)-1-butenyl]-5-hydroxy-2(5H)-furanone] yielded an IC50 of 40 nM. `CCCCCCCCCCCCC(=CP(=O)(OCC)OCC)C1=CC(=O)OC1O` (centres unmarked) [Compound 24, 4-[(1-Dodecyl-2-diethylphosphonyl)-1-ethenyl]-5-hydroxy-2(5H)-furanone] gave an IC50 of 80 nM.

Test system: not given
Assay: not given
Conditions: U.S. Pat. No. 4,447,445; European Patent Application No. 0133376; cited from earlier work
In the case of `CC(=CCCC1=CCC(C2=CC(=O)OC2O)OC1O)CCC1=C(C)CCCC1(C)C` (centres unmarked) [Compound 1], the biological activity is given as “anti-inflammatory, immunosuppressive and analgesic properties”. In the case of `CC(=CCCC(C=O)=CCC(O)C1=CC(=O)OC1O)CCC1=C(C)CCCC1(C)C` (centres unmarked) [Compound 2], the biological activity is given as “anti-inflammatory inflammatory activity”. For `CC(=CCCC(C=O)=CC=CC1=CC(=O)OC1O)CCC1=C(C)CCCC1(C)C` (centres unmarked) [Compound 3], the biological activity is listed as “anti-inflammatory inflammatory activity”.
